The source of these data is ChEMBL document CHEMBL5465560, “Selectivity Literature for EUbOPEN Chemogenomic Library” (2024).

Experiment [1] concerns the target T1, Mitogen-activated protein kinase kinase kinase 13 (Homo sapiens) (UniProt O43283).
T1 sequence (whole entry): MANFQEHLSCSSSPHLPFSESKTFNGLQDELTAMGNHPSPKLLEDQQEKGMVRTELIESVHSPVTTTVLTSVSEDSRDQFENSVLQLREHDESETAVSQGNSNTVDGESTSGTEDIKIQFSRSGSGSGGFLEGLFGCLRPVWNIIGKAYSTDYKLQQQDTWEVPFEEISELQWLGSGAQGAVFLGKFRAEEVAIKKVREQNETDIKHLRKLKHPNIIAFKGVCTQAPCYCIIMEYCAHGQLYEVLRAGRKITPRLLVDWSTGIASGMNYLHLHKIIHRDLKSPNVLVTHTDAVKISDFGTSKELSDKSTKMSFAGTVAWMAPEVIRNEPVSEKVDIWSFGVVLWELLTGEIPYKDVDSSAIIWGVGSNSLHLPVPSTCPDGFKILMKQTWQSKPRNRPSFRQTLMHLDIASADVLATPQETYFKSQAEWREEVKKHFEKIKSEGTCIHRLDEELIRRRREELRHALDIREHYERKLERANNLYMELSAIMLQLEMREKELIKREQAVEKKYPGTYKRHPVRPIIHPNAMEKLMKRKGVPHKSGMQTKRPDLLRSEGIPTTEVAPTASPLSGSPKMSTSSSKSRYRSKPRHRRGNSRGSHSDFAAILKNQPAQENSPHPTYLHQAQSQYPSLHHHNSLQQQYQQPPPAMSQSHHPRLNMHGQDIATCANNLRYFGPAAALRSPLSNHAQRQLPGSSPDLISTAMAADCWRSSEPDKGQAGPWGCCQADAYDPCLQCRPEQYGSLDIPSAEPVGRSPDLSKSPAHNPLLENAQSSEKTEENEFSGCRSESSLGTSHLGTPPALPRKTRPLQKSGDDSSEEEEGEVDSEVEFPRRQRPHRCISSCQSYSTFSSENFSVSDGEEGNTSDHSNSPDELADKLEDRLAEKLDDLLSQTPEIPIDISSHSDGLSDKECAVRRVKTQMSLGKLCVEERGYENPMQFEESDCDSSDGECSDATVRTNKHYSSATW
Kind of experiment: Selectivity interaction (KinomeScan (DiscoverX)) EUB0001079a MAP3K13. Conditions: at 1 µM.

Experiment [2] has as its target Serine/threonine-protein kinase PAK 1 (Homo sapiens) (UniProt Q13153). Description: Selectivity interaction (Kinase panel (Eurofins)) EUB0001564a PAK1. The following applies: at 1 µM.
For experiment [3], the target named is T2, Serine/threonine-protein kinase RIO1 (Homo sapiens) (UniProt Q9BRS2).
T2 sequence (whole entry): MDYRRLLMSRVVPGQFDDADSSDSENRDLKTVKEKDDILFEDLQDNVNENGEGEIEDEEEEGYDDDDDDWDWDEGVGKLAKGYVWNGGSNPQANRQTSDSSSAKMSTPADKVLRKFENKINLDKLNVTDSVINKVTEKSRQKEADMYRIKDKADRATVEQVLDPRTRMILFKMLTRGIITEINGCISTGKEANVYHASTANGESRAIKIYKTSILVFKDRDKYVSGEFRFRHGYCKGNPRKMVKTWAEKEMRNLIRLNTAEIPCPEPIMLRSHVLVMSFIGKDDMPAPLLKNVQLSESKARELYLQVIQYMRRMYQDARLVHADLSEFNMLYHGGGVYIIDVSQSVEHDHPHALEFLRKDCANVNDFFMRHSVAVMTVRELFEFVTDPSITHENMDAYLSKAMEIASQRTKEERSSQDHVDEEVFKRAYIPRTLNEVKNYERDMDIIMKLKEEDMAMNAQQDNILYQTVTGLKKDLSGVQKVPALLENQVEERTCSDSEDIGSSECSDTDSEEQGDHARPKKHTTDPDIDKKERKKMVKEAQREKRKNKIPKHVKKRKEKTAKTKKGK
Kind of experiment: Selectivity interaction (KinomeScan (DiscoverX)) EUB0000045b RIOK1.

Experiment [4] deals with T3, Dual specificity protein kinase TTK (Homo sapiens) (UniProt P33981).
T3 sequence (whole entry): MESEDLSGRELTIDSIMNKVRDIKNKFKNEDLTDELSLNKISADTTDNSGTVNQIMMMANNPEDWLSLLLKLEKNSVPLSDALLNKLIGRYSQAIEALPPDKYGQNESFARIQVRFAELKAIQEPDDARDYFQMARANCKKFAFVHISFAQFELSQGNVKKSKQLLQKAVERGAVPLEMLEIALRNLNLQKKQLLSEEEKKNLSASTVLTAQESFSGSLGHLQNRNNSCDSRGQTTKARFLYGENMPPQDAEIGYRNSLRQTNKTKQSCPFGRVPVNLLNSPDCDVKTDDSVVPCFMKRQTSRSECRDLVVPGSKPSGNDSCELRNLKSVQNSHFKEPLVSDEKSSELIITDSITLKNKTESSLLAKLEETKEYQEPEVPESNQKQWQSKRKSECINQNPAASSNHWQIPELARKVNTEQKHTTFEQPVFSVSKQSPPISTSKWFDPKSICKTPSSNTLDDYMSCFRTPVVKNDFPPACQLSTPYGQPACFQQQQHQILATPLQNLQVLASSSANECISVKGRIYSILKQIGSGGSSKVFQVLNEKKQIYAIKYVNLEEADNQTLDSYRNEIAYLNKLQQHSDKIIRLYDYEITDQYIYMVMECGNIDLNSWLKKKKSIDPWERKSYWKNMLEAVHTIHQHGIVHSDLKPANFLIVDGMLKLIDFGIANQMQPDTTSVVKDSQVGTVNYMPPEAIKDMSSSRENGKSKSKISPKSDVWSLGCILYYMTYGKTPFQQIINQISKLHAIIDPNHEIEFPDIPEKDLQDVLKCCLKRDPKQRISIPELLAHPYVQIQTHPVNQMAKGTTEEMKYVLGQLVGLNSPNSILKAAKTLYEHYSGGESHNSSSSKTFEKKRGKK
Kind of experiment: Selectivity interaction (KinomeScan (DiscoverX)) EUB0000666a TTK. The following applies: at 10 µM.

For experiment [5], the target named is T4, EKC/KEOPS complex subunit TP53RK (Homo sapiens) (UniProt Q96S44).
T4 sequence (whole entry): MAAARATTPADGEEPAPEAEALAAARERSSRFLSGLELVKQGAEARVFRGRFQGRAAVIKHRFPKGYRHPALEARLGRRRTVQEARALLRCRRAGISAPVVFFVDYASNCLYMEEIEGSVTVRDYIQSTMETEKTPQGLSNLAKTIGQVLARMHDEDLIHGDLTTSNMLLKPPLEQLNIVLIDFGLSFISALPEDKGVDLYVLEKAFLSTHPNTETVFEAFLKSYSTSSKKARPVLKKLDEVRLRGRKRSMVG
Kind of experiment: Selectivity interaction (Kinase panel (KiNativ target engagement assay in Jurkat cells)) EUB0001635a TP53RK. Type of experiment: cell-based. The following applies: Selectivity number of off-targets 0.0, Selectivity number of targets 233.0, Source Knowledge https://www.sciencedirect.com/science/article/pii/S2451945619300674?via%3Dihub, at 1 µM.

Chain of Serine/threonine-protein kinase PAK 1 (Homo sapiens) (Q13153 whole entry): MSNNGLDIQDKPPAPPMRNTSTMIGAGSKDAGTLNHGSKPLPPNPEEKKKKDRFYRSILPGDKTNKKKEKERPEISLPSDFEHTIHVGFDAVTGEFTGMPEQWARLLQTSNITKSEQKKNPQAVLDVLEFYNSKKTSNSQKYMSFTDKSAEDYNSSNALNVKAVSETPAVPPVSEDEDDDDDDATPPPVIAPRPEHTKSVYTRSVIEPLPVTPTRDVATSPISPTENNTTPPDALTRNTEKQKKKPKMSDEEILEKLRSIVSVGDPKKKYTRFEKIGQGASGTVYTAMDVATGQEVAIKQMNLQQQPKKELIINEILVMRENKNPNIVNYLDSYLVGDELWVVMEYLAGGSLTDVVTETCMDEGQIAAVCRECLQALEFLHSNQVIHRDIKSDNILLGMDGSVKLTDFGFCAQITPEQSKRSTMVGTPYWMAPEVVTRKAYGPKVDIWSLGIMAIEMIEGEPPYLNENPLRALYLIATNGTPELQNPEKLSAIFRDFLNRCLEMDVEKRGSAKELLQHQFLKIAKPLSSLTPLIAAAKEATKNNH

Compound `Nc1cnc(N2CCc3cc(S(=O)(=O)Nc4c(F)cc(Cl)cc4F)cc(N4CCCC4=O)c32)nc1` [TP-020n] returned a % of control in experiment [1] of 100%.

In experiment [2], `CC[C@@H](Nc1c(C#N)c(-c2ccc(-c3cccc(C)c3F)cc2)nc2cnccc12)C(=O)O` [BAY-091] gave a % of inhibition of 23.8%.

As for `C=CC(=O)Nc1cc(-n2c(=O)ccc3cnc4ccc(-c5ccc(NS(C)(=O)=O)cc5)cc4c32)ccc1C`, the % of control was determined as 20% in experiment [3] (at 1 µM) and 52% in experiment [3] (at 10 µM).

For the compound `O=C(NOC[C@H](O)CO)c1ccc(F)c(F)c1Nc1ccc(I)cc1F`, in experiment [4], the % of control turned out to be 100%.

As to `C=CC(=O)Nc1ccc(C(=O)Nc2[nH]nc3c2CN(C(=O)N[C@H](CN(C)C)c2ccccc2)C3(C)C)cc1`, in experiment [5], the % of engagement is -14.9%.
